Legend:
[1] = molecular target: T1, TLR2/6 (Homo sapiens, UniProt O60603); assay: HEK-Blue hTLR2 SEAP reporter assay, Pam2CSK4-activated (TLR2/6); format: cell-based; conditions: hTLR2 HEK cells activated with Pam2CSK4; mean of at least three determinations; read-out: IC50 (PAM-2; μM)
T1 construct: host or cells: HEK293 (HEK-Blue hTLR2)
Source text: (§1) Human embryonic kidney (HEK) Blue hTLR2 secreted embryonic alkaline phosphatase (SEAP) reporter 293 cells, expressing the human TLR2 gene; HEK-Blue hTLR3 SEAP reporter 293 cells, expressing the human TLR3 gene; HEK-Blue hTLR4 SEAP reporter 293 cells, expressing the human TLR4 gene; HEK-Blue hTLR7 SEAP reporter 293 cells, expressing the human TLR7 gene; and HEK-Blue hTLR8 SEAP reporter 293 cells, expressing the human TLR8 gene. HEK Blue cells expressing recombinant human TLRs were obtained by cotransfection of the human TLR2, TLR3, TLR4, TLR7, TLR8, or TLR9 and SEAP (secreted embryonic alkaline phosphatase) genes into HEK293 cells. The SEAP reporter gene was placed under the control of a minimal promoter fused to five NFĸB and AP-1 binding sites. Stimulation with TLRs ligands activates NFĸB and AP-1 that induce the production of SEAP. Therefore, these cells are designed for studying the stimulation of TLRs by monitoring the activation of NFĸB/AP-1. These NFĸB reporter cell lines were used as a primary screening tool due to their robust and well-characterized responses to TLRs activators and inhibitors. […]

[2] = molecular target: T2, TLR1/2 (Homo sapiens, UniProt O60603); assay: HEK-Blue hTLR2 SEAP reporter assay, Pam3CSK4-activated (TLR1/2); format: cell-based; conditions: hTLR2 HEK cells activated with Pam3CSK4; mean of at least three determinations; read-out: IC50 (PAM-3; μM)
T2 construct: host or cells: HEK293 (HEK-Blue hTLR2)
Source text: as §1

T1 sequence (O60603 21-784): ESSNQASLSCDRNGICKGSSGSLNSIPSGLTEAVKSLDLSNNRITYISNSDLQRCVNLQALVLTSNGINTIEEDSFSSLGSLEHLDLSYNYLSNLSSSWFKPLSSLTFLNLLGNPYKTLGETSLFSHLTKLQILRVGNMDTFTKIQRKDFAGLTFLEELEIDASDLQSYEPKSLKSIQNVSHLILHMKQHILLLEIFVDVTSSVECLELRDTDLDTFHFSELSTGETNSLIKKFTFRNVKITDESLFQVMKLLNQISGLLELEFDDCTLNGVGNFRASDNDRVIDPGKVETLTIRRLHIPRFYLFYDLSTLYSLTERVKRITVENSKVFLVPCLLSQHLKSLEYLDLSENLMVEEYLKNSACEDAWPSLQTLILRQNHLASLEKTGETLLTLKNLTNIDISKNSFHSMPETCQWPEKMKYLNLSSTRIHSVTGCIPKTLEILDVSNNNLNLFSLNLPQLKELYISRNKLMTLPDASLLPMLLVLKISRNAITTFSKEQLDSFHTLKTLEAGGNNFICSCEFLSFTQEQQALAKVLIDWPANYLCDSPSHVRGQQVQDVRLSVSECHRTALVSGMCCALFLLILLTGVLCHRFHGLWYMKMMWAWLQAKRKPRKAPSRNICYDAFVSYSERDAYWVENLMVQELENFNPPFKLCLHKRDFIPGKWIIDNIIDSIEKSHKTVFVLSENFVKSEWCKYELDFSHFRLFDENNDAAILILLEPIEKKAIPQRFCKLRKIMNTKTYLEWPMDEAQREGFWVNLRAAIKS
T2 sequence (O60603 21-784): as above

- IC50 [1]: 61.6 µM
- IC50 [2]: 40.2 µM
Compound: COc1cccc(C=O)c1O [O-vanillin]
